Laboratory results reported in PubChem BioAssay AID1963847 (Molecular Pharmacology Branch, DTP, NCI, 2024).

System: 415267-285-R-J2-PDC complex spheroid viability
Assay: Anticancer human tumor 415267-285-R-J2-PDC patient-derived breast carcinoma cell line growth inhibition [POLQ]
Settings: for IC50: curve of first compound; for viability, T/C: stronger effect = lower value
Procedure: Multicellular complex tumor spheroid response to Polymerase (POL) inhibitors (novobiocin, ART-558, RP6685) in combination with a variety of drugs and investigational agents in selected tumor cell lines
The POL inhibitors (novobiocin, ART-558, and RP6685) were evaluated both individually and in combination with standard of care and investigational anticancer small molecules within a complex spheroid model of solid tumors. . Complex spheroids include a stromal component modeled by human endothelial cells (HUVEC) and fibroblasts modeled by human mesenchymal stem cells (MSCs). The concentration ranges selected for each drug and investigational agent were based upon clinically achievable concentrations if the clinical Cmax of the agent was known.
Compounds. The drugs and investigational agents: novobiocin (NSC847541), ART-558 (NSC835418), RP-6685 (NSC848927), peposertib (NSC802822), ceralasertib (NSC780249), elimusertib (NSC800525), camonsertib (NSC841442), AZD-1390 (NSC803789), olaparib (NSC753686), talazoparib (NSC767125), rucaparib (NSC756644), sotorasib (NSC818433), MRTX-1133 (NSC836407), SN-38 (NSC673596), topotecan (NSC609699), epotoside (NSC141540), doxorubicin (NSC123127), gemcitabine (NSC613327), 5-fluorouracil (NSC19893), paclitaxel (NSC125973), vemurafenib (NSC761431), MSA-2 (NSC828583), SN-011 (NSC837082), adavosertib (NSC754352), prexasertib (NSC758257), carboplatin (NSC241240) and oxaliplatin (NSC266046), were obtained from the National Cancer Institute (NCI) Developmental Therapeutics Program Chemical Repository (21). The FDA-approved anticancer drug set is available from the Developmental Therapeutics Program at https://dtp.cancer.gov/organization/dscb/obtaining/. […] The stock solutions were prepared in dimethyl sulfoxide (DMSO, Sigma-Aldrich, St. Louis, MO, cat. D2650), except for the platinum compounds which were prepared in saline (Quality Biological, Gaithersburg, MD, cat. 114-055-101), at 800-fold the tested concentration and stored at -70 degrees C prior to their use. All drugs and investigational agents were tested over a range starting from a high concentration at or near the clinical Cmax and decreasing in half-log increments. If the clinical Cmax for an agent had not been determined, the highest concentration tested was 10 microM, except for SN-38, which was tested at a high concentration of 1 microM.
Cell Culture. All cells were maintained in an incubator at 37 degrees C and 5% CO2 with 95% humidity. The PDC lines were cultured according to standard operating procedures established by the NCI PDMR (https://pdmr.cancer.gov). Table 3 of the manuscript, lists the cell lines along with the number of the three cell types plated to form the mct-spheroids and media for tumor cell growth. After thawing, all PDC lines, except 997537-175-T-J1-PDC and 415267-285-R-J2-PDC, were cultured in Matrigel-coated flasks prepared with a working solution of 1X Ham's F-12 nutrient mix, without supplementation (Thermo Fisher Scientific, cat. 11765054), 100 U/mL penicillin-streptomycin (Thermo Fisher Scientific, cat. 15140122), and 2.5% Matrigel (Corning Inc., Corning, NY, cat. 354248) for the first three passages. The two PDC lines 997537-175-T-J1-PDC and 415267-285-R-J2-PDC were cultured on uncoated flasks. The 857933-349-R-J2-PDC line was cultured in 6C/Colon 1B media containing advanced DMEM/F-12 (Thermo Fisher Scientific, cat. 12634028), 10 mM HEPES (Thermo Fisher Scientific, cat. 15630080), 1X GlutaMAX supplement (Thermo Fisher Scientific, cat. 35050061), 0.1 mg/mL primocin (InvivoGen, San Diego, CA, cat. ant-pm-2), 10% defined fetal bovine serum, heat inactivated (HyClone Laboratories Inc., Logan, UT, cat. SH30070.03HI), 50% L-WRN conditioned media (ATCC, cat. CRL-3276), 1.25 mM N-Acetyl-L-cysteine (Sigma-Aldrich, cat. A9165), 10 mM nicotinamide (Sigma-Aldrich, cat. N0636), 1X B-27 supplement (Thermo Fisher Scientific, cat. 17504044), 1X N-2 supplement (Thermo Fisher Scientific, cat. […]
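Note: spheroids exposed to compounds for one week before readout.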
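Throughout, for viability, T/C: luminescence used as stand-in measure of viable cells; 100% = DMSO vehicle control viability.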

CCc1cc2c(N3CCc4c(cc(Cn5ccnc5)cc4-c4cn(C)nc4C(F)(F)F)C3=O)cc(C)nc2c(OC)n1 + Cc1cccc(N(C)C(=O)C2C(O)CCN2c2nc(C)cc(C(F)(F)F)c2C#N)c1
IC50 (second compound 0.0316 µM): > 10 µM
IC50 (second compound 0.1 µM): > 10 µM
IC50 (second compound 0.316 µM): > 10 µM
IC50 (second compound 1 µM): > 10 µM
IC50 (second compound 3.16 µM): > 10 µM
IC50 (second compound 10 µM): > 10 µM
viability, T/C (second compound 0.0316 µM, first compound 0.0316 µM): 92.6%
viability, T/C (second compound 0.0316 µM, first compound 0.1 µM): 98.2%
viability, T/C (second compound 0.0316 µM, first compound 0.316 µM): 82%
viability, T/C (second compound 0.0316 µM, first compound 1 µM): 91.5%
viability, T/C (second compound 0.0316 µM, first compound 3.16 µM): 90%
viability, T/C (second compound 0.0316 µM, first compound 10 µM): 77.1%
viability, T/C (second compound 0.1 µM, first compound 0.0316 µM): 93%
viability, T/C (second compound 0.1 µM, first compound 0.1 µM): 89.3%
viability, T/C (second compound 0.1 µM, first compound 0.316 µM): 83%
viability, T/C (second compound 0.1 µM, first compound 1 µM): 89.8%
viability, T/C (second compound 0.1 µM, first compound 3.16 µM): 81%
viability, T/C (second compound 0.1 µM, first compound 10 µM): 71.7%
viability, T/C (second compound 0.316 µM, first compound 0.0316 µM): 97.7%
viability, T/C (second compound 0.316 µM, first compound 0.1 µM): 91.4%
viability, T/C (second compound 0.316 µM, first compound 0.316 µM): 95.1%
viability, T/C (second compound 0.316 µM, first compound 1 µM): 89.7%
viability, T/C (second compound 0.316 µM, first compound 3.16 µM): 85.1%
viability, T/C (second compound 0.316 µM, first compound 10 µM): 80.2%
viability, T/C (second compound 1 µM, first compound 0.0316 µM): 102%
viability, T/C (second compound 1 µM, first compound 0.1 µM): 81.4%
viability, T/C (second compound 1 µM, first compound 0.316 µM): 84.5%
viability, T/C (second compound 1 µM, first compound 1 µM): 91.7%
viability, T/C (second compound 1 µM, first compound 3.16 µM): 88.7%
viability, T/C (second compound 1 µM, first compound 10 µM): 74.7%
viability, T/C (second compound 3.16 µM, first compound 0.0316 µM): 92.3%
viability, T/C (second compound 3.16 µM, first compound 0.1 µM): 99.7%
viability, T/C (second compound 3.16 µM, first compound 0.316 µM): 90.7%
viability, T/C (second compound 3.16 µM, first compound 1 µM): 89.8%
viability, T/C (second compound 3.16 µM, first compound 3.16 µM): 84.8%
viability, T/C (second compound 3.16 µM, first compound 10 µM): 87.9%
viability, T/C (second compound 10 µM, first compound 0.0316 µM): 90.3%
viability, T/C (second compound 10 µM, first compound 0.1 µM): 95.7%
viability, T/C (second compound 10 µM, first compound 0.316 µM): 89.2%
viability, T/C (second compound 10 µM, first compound 1 µM): 91.7%
viability, T/C (second compound 10 µM, first compound 3.16 µM): 81.2%
viability, T/C (second compound 10 µM, first compound 10 µM): 81.7%
